According to article PMC4109680, “Identification and Preclinical Pharmacology of the γ-Secretase Modulator BMS-869780” (International Journal of Alzheimer's Disease, 2014):
Where two headings read alike, the source gives them in different places.

Columns and labels:
Format in all cases: in vivo
brain Aβ1-42 [1] = test: Rat time course PK/PD, oral dose, indirect response model; details: Rat 3 mg/kg PO solution (predicted steady state after 3 daily doses)
[2] = Plasma exposure in rat 4-day oral dosing experiment; details: for AUC(0-t): read-out: AUC (0–24 h); for concentration at 4 day: oral, read-out: Terminal concentration day 4
Method: (§1) All experimental procedures with animals followed National Institutes of Health guidelines and were authorized by and in compliance with policies of the Bristol-Myers Squibb Animal Use and Care Committee. Mice and rats were housed with a 6:00 AM to 6:00 PM light/dark cycle and allowed free access to food and water. For 3xTg mice, BMS-869780 was dosed in three-month-old females by oral gavage at 6 mL/kg in vehicle consisting of 84% polyethylene glycol average molecular weight of 400 (PEG-400), 15% EtOH, and 1% Tween-80 (w/w/w). The compound was dissolved in EtOH and then diluted with PEG-400 and Tween, after which the vial was sealed, vortexed, and sonicated at 56°C for 1 hour. Animals were euthanized by asphyxiation in CO2. Blood was collected by cardiac puncture and placed into ethylene-diaminetetraacetic acid microtainer tubes for the preparation of plasma. The cerebellum was collected for the determination of compound concentration, and the remaining brain was separated into left and right halves before freezing in liquid nitrogen. For the rat time course study, 8- to 12-week-old female Sprague-Dawley rats were obtained from Charles River Laboratories (Wilmington, MA), BMS-869780 was dosed orally at 4 mL/kg, and brain and plasma samples were collected as described for the 3xTg mice. For the four day repeat dose rat study, BMS-869780 was given by oral gavage in vehicle consisting of PEG-400, PEG-200, D-α-tocopheryl polyethylene glycol succinate, Solutol HS 15, in the ratio 80 : 10 : 5 : 5 (w/w/w/w). Methods for the pharmacokinetics studies in rat, dog, and monkey are described below.
As a preliminary evaluation of safety in vivo, male and female rats were given 10, 30, and 100 mg/kg BMS-869780 orally once daily for 4 days. Endpoints included brain Aβ1-42, as described above (Figures 7(d) and 7(e)), plasma PK on day 1 and day 3 (Table 4), and histopathology for duodenum, liver, and kidney.

brain Aβ1-42 [3] = test: Triple transgenic (3xTg) mouse time course PK/PD, oral dose, indirect response model; details: for IC50: po
Method: (§2) Figure 8 Analysis of the PK/PD relationship for BMS-869780 in rats and mice. Rats were dosed orally with BMS-869780 at 10 mg/kg, and triple transgenic mice were orally dosed at 30 mg/kg and 100 mg/kg. Additional groups of rats and mice were dosed with vehicle alone. Brain and plasma were harvested at 3, 5, 8, 16, and 24 hours after dosing for determination of brain Aβ1-42 and plasma BMS-869780 concentration. Group sizes were 5 rats or 4 mice. Whiskers represent standard error. […] The data were fit to a one-compartment PK model and the predicted plasma BMS-869780 concentrations are shown for mouse (solid lines) and rat (broken line). […] The data were fitted using the indirect pharmacodynamic response model and predicted values are shown (solid lines). (c) Brain Aβ1-42 levels were determined for the rats dosed with BMS-869780 at 10 mg/kg (▼) or vehicle alone (●). The data were fitted using the indirect pharmacodynamic response model and predicted values are shown (dashed line). (d) Brain Aβ1-40 levels determined in the same rats as illustrated in (c).
as §1
(§3) The data generated in the mouse and rat time course experiments were analyzed sequentially by nonlinear regression (WinNonlin Pharsight Corporation, Mountain View, CA). The pharmacokinetic data were best described by a 1-compartment linear model with first-order absorption and elimination. Subsequently, the pharmacodynamic parameters were estimated from the BMS-869780 plasma concentrations and the observed reductions of brain Aβ1-42 or Aβ1-40 by fitting to the equation for inhibition of synthesis. The goodness-of-fit was determined by visual inspection, Akaike Information Criterion, Schwartz Criterion, examination of the residuals and the coefficient of variation of the parameter estimates.

[4] = as above; details: female, 3xTg (triple transgenic), plasma
Method: as §2, §1, §3

[5] = female, rat, plasma, po, 10 mg/kg, Female, Day 1
[6] = female, rat, plasma, po, 10 mg/kg, Female, Day 3
[7] = female, rat, plasma, po, 30 mg/kg, Female, Day 1
[8] = female, rat, plasma, po, 30 mg/kg, Female, Day 3
[9] = female, rat, plasma, po, 100 mg/kg, Female, Day 1
[10] = female, rat, plasma, po, 100 mg/kg, Female, Day 3
[11] = male, rat, plasma, po, 10 mg/kg, Male, Day 1
[12] = male, rat, plasma, po, 10 mg/kg, Male, Day 3
[13] = male, rat, plasma, po, 30 mg/kg, Male, Day 1
[14] = male, rat, plasma, po, 30 mg/kg, Male, Day 3
[15] = male, rat, plasma, po, 100 mg/kg, Male, Day 1
[16] = male, rat, plasma, po, 100 mg/kg, Male, Day 3
[17] = Mouse 30 mg/kg PO solution (observed 0–24 hours)
[18] = Mouse 100 mg/kg PO solution (observed 0–24 hours)

SMILES: COc1cc(Nc2nc3n(n2)CCCC[C@H]3c2ccc(F)cc2)ccc1-n1cnc(Cl)c1 [BMS-869780]
- Brain Aβ ABEC 24 hr Aβ1-42 (brain Aβ1-42 [1]): 26.9%
- Plasma AUC 0–24 hr (brain Aβ1-42 [1]): 18.6 µM·h
- Terminal concentration day 4 ([2]; 100 mg/kg, Female): 13.7 (±0.9) μM
- AUC (0–24 h) ([2]; 100 mg/kg, Female, Day 3): 316.4 (±77.0) μM·h
- Terminal concentration day 4 ([2]; 100 mg/kg, Male): 9.2 (±3.2) μM
- change of exposure on repeat dosing ([2]; day 1 versus day 3): no loss of exposure between day 1 and day 3
- Cmax [2, 5]: 2.9 µM
- Tmax [2, 5]: 7 h
- AUC(0-t) [2, 5]: 41 µM·h
- Cmax [2, 6]: 2.6 µM
- Tmax [2, 6]: 5 h
- AUC(0-t) [2, 6]: 25 µM·h
- Cmax [2, 7]: 8.2 µM
- Tmax [2, 7]: 5 h
- AUC(0-t) [2, 7]: 152 µM·h
- Cmax [2, 8]: 14.4 µM
- Tmax [2, 8]: 3 h
- AUC(0-t) [2, 8]: 255 µM·h
- Cmax [2, 9]: 10.6 µM
- Tmax [2, 9]: 24 h
- AUC(0-t) [2, 9]: 206 µM·h
- Cmax [2, 10]: 15.5 µM
- Tmax [2, 10]: 4 h
- AUC(0-t) [2, 10]: 316 µM·h
- exposures achieved ([2]; highest dose of 100 mg/kg): > 200 µM·h
- Cmax [2, 11]: 2 µM
- Tmax [2, 11]: 5 h
- AUC(0-t) [2, 11]: 20.2 µM·h
- Cmax [2, 12]: 1.9 µM
- Tmax [2, 12]: 5 h
- AUC(0-t) [2, 12]: 17.5 µM·h
- Cmax [2, 13]: 6.1 µM
- Tmax [2, 13]: 8 h
- AUC(0-t) [2, 13]: 95.2 µM·h
- Cmax [2, 14]: 10.4 µM
- Tmax [2, 14]: 3 h
- AUC(0-t) [2, 14]: 129 µM·h
- Cmax [2, 15]: 7.7 µM
- Tmax [2, 15]: 19 h
- AUC(0-t) [2, 15]: 168 µM·h
- Cmax [2, 16]: 13.2 µM
- Tmax [2, 16]: 7 h
- AUC(0-t) [2, 16]: 217 µM·h
- concentration at 4 day ([2]; rat, plasma, 10 mg/kg, Female): 3 µM
- concentration at 4 day ([2]; rat, plasma, 10 mg/kg, Male): 2.4 µM
- concentration at 4 day ([2]; rat, plasma, 30 mg/kg, Female): 12 µM
- concentration at 4 day ([2]; rat, plasma, 30 mg/kg, Male): 8.9 µM
- AUC ([2]; rat, plasma, po, four daily doses of 10 mg/kg): 17.5 µM·h
- Brain Aβ ABEC 24 hr Aβ1-42 (brain Aβ1-42 [3]; [17]): 30.9%
- Brain Aβ ABEC 24 hr Aβ1-42 (brain Aβ1-42 [3]; [18]): 55.1%
- V/F (brain Aβ1-42 [3]; mouse): 1.94 L/kg
- Ka1 (30 mg/kg) (brain Aβ1-42 [3]; mouse, 30 mg/kg oral): 0.11 h⁻¹
- Ka2 (100 mg/kg) (brain Aβ1-42 [3]; mouse, 100 mg/kg oral): 0.046 h⁻¹
- K in (brain Aβ1-42 [3]; mouse, calculated): 72 %/h
- K OUT (brain Aβ1-42 [3]; mouse, rate constant for degradation of Aβ): 0.72 h⁻¹
- IC50 (brain Aβ1-42 [3]; mouse, PD model, read-out: IC50 (plasma concentration required for 50% inhibition of Aβ production)): 3.98 µM
- IC50 (brain Aβ1-42 [3]; mouse, read-out: in vivo plasma IC50 for brain Aβ1-42): 4 µM
- k el ([4]; oral, mouse, 1-compartment PK model): 7.78e-05 s⁻¹
- AUC(0-t) [4, 17]: 45.9 µM·h
- AUC(0-t) [4, 18]: 102 µM·h
